Values quoted from earlier work as cited in patent publication US20070207452A1, “Method of detecting micronucleus in cell” (Olympus Corporation, priority 2004, published 2007).

System: bacteria
Conditions: background statement; carcinogenic substances detected by the chromosomal aberration test

| Structure (SMILES) | result in the reverse mutation test |
| --- | --- |
| c1ccccc1 [benzene] | negative |
| CC/C(=C(/CC)c1ccc(O)cc1)c1ccc(O)cc1 [diethylstilbestrol] | negative |
